Results on five molecules are retold here after PMC6778101 (Nature Communications, 2019).

Format in all cases: cell-based, Escherichia coli
Assay [1] concerns E. coli K-12 BW25113 carrying ASKA plasmids. Description: microbe, parasite or virus in culture. As to conditions: for MIC: Escherichia coli; for MIC / MIC value of E. coli K-12 BW25113 carrying the empty plasmid of the ASKA library / MIC value of E. coli K-12 BW25113 carrying the pooled plasmids of the ASKA library: MS medium + 10 µg mL−1 CHL + 500 µM IPTG, 5 × 10^5 cells, 16–18 h, 37 °C. The text has this: Bacterial gene amplification generates extensive genetic variation that can provide drug resistance[37],[38]. As gene amplification events tend to be genetically unstable and reduce bacterial fitness, they are transient in nature. Using the ASKA library, which comprises each E. coli ORF cloned into an expression vector[40], we have conducted a global survey to evaluate whether artificially amplified genes provide resistance to any of the 14 AMPs and 11 antibiotics tested. As chloramphenicol (CHL) was used as a selection marker for the ASKA plasmid, this antibiotic was not tested in this screen. E. coli K-12 BW25113 cells were transformed with the pooled plasmids of the ASKA library, and the genetically mixed populations were exposed to increasing levels of AMP or antibiotic stresses, respectively. In all cases, the employed AMP or antibiotic dosages were above the MIC of the wild type. For each drug, we identified the MIC provided in the pooled ASKA plasmid library, and compared it to the MIC of the wild-type strain carrying the empty ASKA plasmid.
The ASKA library (a complete set of E. coli K-12 ORF archive) includes every E. coli ORF cloned into an expression vector (pCA24N)[65]. Prior to screening, the ASKA plasmid collection was pooled and transformed into E. coli K-12 BW25113 strain[66]. The plasmid pool was created by pooling an equal aliquot of cells, each carrying different members of the ASKA library, followed by plasmid miniprep. Next, the plasmid pool was electroporated into E. coli K-12 BW25113 competent cells. […] For the MICs measurements 500 000 cells were inoculated in each well which represents ~100 times coverage of each library member. […] Prior to the measurements the cell population containing the pooled overexpression library or the control strain containing the empty vector were grown in three replicates in LB medium supplemented with 20 µg/mL CHL. As the culture reached high density (i.e., OD600 > 0.8), expression of the plasmid was induced by 50 µM IPTG for 1 h. Following induction, 5 × 10^5 bacterial cells were inoculated in three replicates into each well of the 96-well plate and incubated for 16–18 h at 37 °C. Following incubation the MIC values were determined by measuring optical densities in a plate reader (Biotek Synergy).

The test system of assay [2] is antibiotic- and AMP-adapted E. coli K-12 BW25113 lines. Description: High-throughput fitness measurement of adapted lines (area under growth curve, drug-free medium). As to conditions: adapted line APC1. An excerpt: We estimated fitness by measuring growth of these strains and the corresponding wild-type in antibiotic-free medium (“Methods”). […] As might be expected, fitness costs varied substantially across antibiotics and AMPs (Fig. 1b). […] This pattern is unlikely to reflect differences in the level of resistance between AMP and antibiotic strains, respectively. There is only a weak, marginally significant negative correlation between the level of resistance and fitness cost (Supplementary Fig. 1, Spearman’s rho = −0.24, P = 0.016 (N = 98)), and this correlation becomes non-significant after controlling for drug type (P = 0.6 and P = 0.39 for antibiotics (N = 60) and AMPs (N = 38) respectively, Spearman’s correlation).
Bacterial cell growth was assayed by continuously monitoring the optical density (OD600) of liquid cultures using 384-well microtiter plates containing MS medium, the same medium used during the laboratory evolution. Fitness was measured for a total of 60 antibiotic-adapted and the 38 AMP-adapted E. coli K-12 BW25113 lines (at least four lines per antibiotic or AMP). All measurements were performed twice (six technical replicates per experiment). Starter cultures were inoculated into 96-well plates containing MS medium and incubated for 20 h at 30 °C for E. coli K-12 BW25113 and its evolved lines. After this growth period, the OD600 of each culture was read and the starting cell number set to a final of 50,000 cells per well to a final volume of 60 µl. A total of 384-well plates were inoculated combining four different 96-well starter plates together: one plate having the unevolved wild-type control as a reference strain in all wells in order to estimate possible variation in growth within-plate measurement causing biases to the reading, and three plates containing the different set of antibiotic or AMP-adapted lines. Cell growth was monitored by measuring the optical density at 600 nm every 5 min (OD600 value, Biotek Synergy 2 microplate reader was used for this purpose). The integral data was calculated by the Biotek Gen5 Data Analysis Software between 1 and 24 h in case of E. coli K-12 BW25113 adapted lines. Because of possible influence of temperature equilibration in the first hour of measurement, this time period was excluded from the analysis.

Another assay concerns E. coli K-12 BW25113. Description: microbe, parasite or virus in culture. The text has this: Unless otherwise indicated, Minimal Salt (MS) medium was used in all experiments, including the laboratory evolution experiments. In line with previous, methodologically relevant laboratory evolution studies, the physical conditions (including the medium) were the same during the course of laboratory evolution and all forthcoming assays on the resulting resistant lines (e.g. MIC measurements). We previously optimized this medium for studying AMPs (1 g L^−1 (NH4)2SO4, 3 g L^−1 KH2PO4 and 7 g L^−1 K2HPO4 supplemented with 0.1 mM MgSO4, 0.54 µg mL^−1 FeCl3, 1 µg mL^−1 thiamine hydrochloride, 0.2% Casamino acids and 0.2% glucose)[19]. This medium is highly controlled and provides a reproducible environment for experimental evolution experiments. All components were obtained from Sigma-Aldrich.
MICs were determined using a standard serial broth dilution technique. Briefly, 11-step serial dilutions were prepared in 96-well microtiter plates with three replicates per strain and antimicrobial compound. Each experiment was repeated at least twice. 5 × 10^5 cells/mL were inoculated into each well, and the plates were incubated at 30 °C in case of E. coli K-12 BW25113, and its antibiotic and AMP-adapted lines, or 37 °C in case of the other bacterial species. […] Cell growth was monitored by measuring the optical density (OD600 value, Biotek Synergy 2 microplate reader was used for this purpose). […] Relative MIC was calculated as follows: MICrelative = MICevolved/MICcontrol.

Assay [3] deals with E. coli K-12 BW25113 bearing the metagenomic plasmid library. Description: Functional metagenomic screen of a soil library, gradient plate selection. As to conditions: soil metagenomic library, 1.5–5 kb fragments, gradient plate, 30 °C, 24 h.
For assay [4], the system named is E. coli K-12 BW25113 carrying single mutations. Description: MIC change in single-mutation strains (basS L194R, mlaD a342del, waaY M1†). As to conditions: mutations inserted individually into E. coli K-12 BW25113.
Where [5] appears, read: BW25113, Replicate 1, read-out: MIC value of E. coli K-12 BW25113 carrying the empty plasmid of the ASKA library.
The mark [6] stands for this setting: BW25113, Replicate 1, read-out: MIC value of E. coli K-12 BW25113 carrying the pooled plasmids of the ASKA library.
The mark [7] stands for this setting: BW25113, Replicate 2, read-out: MIC value of E. coli K-12 BW25113 carrying the empty plasmid of the ASKA library.
Where [8] appears, read: BW25113, Replicate 2, read-out: MIC value of E. coli K-12 BW25113 carrying the pooled plasmids of the ASKA library.
The mark [9] stands for this setting: BW25113, Replicate 3, read-out: MIC value of E. coli K-12 BW25113 carrying the empty plasmid of the ASKA library.
The mark [10] stands for this setting: BW25113, Replicate 3, read-out: MIC value of E. coli K-12 BW25113 carrying the pooled plasmids of the ASKA library.
Where [11] appears, read: replicate 1 (first line of the sheet).
Where [12] appears, read: Escherichia coli, BW25113, 24 h, read-out: MIC.

Read-outs that look alike come from different tables or passages of the source.

For `CC1(C)S[C@@H]2[C@H](NC(=O)[C@H](N)c3ccccc3)C(=O)N2[C@H]1C(=O)O` [APC, Ampicillin], the MIC in assay [1] (setting [5]) amounted to 4 µg/mL; in assay [1] (setting [6]), 256 µg/mL; in assay [1] (setting [7]), 4 µg/mL; in assay [1] (setting [8]), 256 µg/mL; in assay [1] (setting [9]), 4 µg/mL; in assay [1] (setting [10]), 256 µg/mL. Moreover, the MIC with E. coli K-12 BW25113 (setting [12]) came out at 6.2 µg/mL. The “integral (measured integral data)” value in assay [2] (setting [11]) came to 10905.8; in assay [2] (replicate 2), 12217.4; in assay [2] (replicate 3) it was 11200; in assay [2] (replicate 4) it was 11338.5; in assay [2] (replicate 5) it was 13182.1. The “normalized integral (integral normalized to wild-type)” value stood at 0.2843 in assay [2] (setting [11]); 0.3185 in assay [2] (replicate 2); 0.292 in assay [2] (replicate 3); 0.2956 in assay [2] (replicate 4); 0.3436 in assay [2] (replicate 5).

Turning to `O=C(N[C@H](CO)[C@H](O)c1ccc([N+](=O)[O-])cc1)C(Cl)Cl` [CHL, Chloramphenicol], in the assay with E. coli K-12 BW25113 (setting [12]), the MIC is 6.9 µg/mL. The “Number of resistant contig” value in assay [3] stood at 7.

As to `NC[C@H]1O[C@H](O[C@H]2[C@H](O)[C@@H](O[C@H]3O[C@H](CO)[C@@H](O)[C@H](N)[C@H]3O)[C@H](N)C[C@@H]2N)[C@H](N)C[C@@H]1O` [TOB, Tobramycin], the MIC turned out to be 1.49 µg/mL in assay [1] (setting [5]); 2.15 µg/mL in assay [1] (setting [6]); 1.24 µg/mL in assay [1] (setting [7]); 2.58 µg/mL in assay [1] (setting [8]); 1.49 µg/mL in assay [1] (setting [9]); 2.58 µg/mL in assay [1] (setting [10]). For the same molecule, the MIC in the assay on E. coli K-12 BW25113 (setting [12]) was found to be 3.4 µg/mL. The “Number of resistant contig” value in assay [3] turned out to be 13.

As to `COc1cc(Cc2cnc(N)nc2N)cc(OC)c1OC` [TRM, Trimethoprim], the “increment in resistance level by the pooled ASKA library” value in assay [1] was 32 fold. For the same molecule, the MIC in assay [1] (setting [5]) turned out to be 2 µg/mL; in assay [1] (setting [6]) it was 128 µg/mL; in assay [1] (setting [7]), 2 µg/mL; in assay [1] (setting [8]), 64 µg/mL; in assay [1] (setting [9]) it was 2 µg/mL; in assay [1] (setting [10]), 64 µg/mL. Besides, the MIC in the assay with E. coli K-12 BW25113 (Escherichia coli, BW25113, 24 h) came to 5.2 µg/mL. Further, the “Number of resistant contig” value in assay [3] amounted to 11.

On to “GIINTLQKYYRVRGGRAVLSLPKEEQIGKSTRGRKRRKK [HBD3, Human beta-defensin-3, clinically relevant antimicrobial peptide with human origin]”, for which the “MIC value of E. coli K-12 BW25113 carrying the empty plasmid of the ASKA library” value was determined as 195.36 µg/mL in assay [1] (Replicate 1), 195.36 µg/mL in assay [1] (Replicate 2) and 281.31 µg/mL in assay [1] (Replicate 3). For the same molecule, the “MIC value of E. coli K-12 BW25113 carrying the pooled plasmids of the ASKA library” value came out at 405.09 µg/mL in assay [1] (Replicate 1), 337.58 µg/mL in assay [1] (Replicate 2) and 281.31 µg/mL in assay [1] (Replicate 3). The “resistance conferred by single mutations basS L194R, mlaD a342del, waaY M1† (in words)” value in assay [4] is reported as “conferred resistance”. Moreover, the MIC in the assay on E. coli K-12 BW25113 (starting wild-type strain of the evolution experiment, broth dilution, MS medium, 5 × 10^5 cells/mL, 30 °C, 24 h, MIC = OD600 < 0.05) was found to be 1500 µg/mL.
